The values that follow are results of earlier work, collected in patent US20090048237A1 (priority 2007, published 2009).

Read-outs that look alike come from different tables or passages of the source. Where only a bound is given, the exact number is not on record here.

For series [1] the following is noted: human, in vivo.
The conditions of series [2]: 0.2 mg/kg sublingual versus 0.2 mg/kg nasal, children.
Assay in series [3]: not given
The source holds these as a separate data set.

The conditions of series [4]: in vivo.
The conditions of series [5]: sublingual Halcion tablets.
The conditions of series [6]: 200 mcg sublingual.
For series [7] the following is noted: children.
For series [8] the following is noted: 125 mcg and 250 mcg.

Regarding `Cc1ncc2n1-c1ccc(Cl)cc1C(c1ccccc1F)=NC2` [Midazolam, 8-chloro-6-(2-fluorophenyl)-1-methyl-4H-imidazo[1,5-a][1,4]benzodiazepine], in [1], the “children who had not previously cried that cried on administration” value was 71%. Also, the “patients who experienced nasal irritation” value in [1] is 20. For the same compound, in [2], the “midazolam level 30 min after premedication” value is listed as “statistically significantly higher than in the nasal group”. Also, the “children with satisfactory sedation at 15 min after administration” value reads like this: (0.25 mg/kg under the tongue) 28%; (0.5 mg/kg under the tongue) 52%; (0.75 mg/kg under the tongue) 64%. For the same compound, the “patients with complete drug dissolution within 10 min” value in [3] (7.5 mg sublingual tablet) is reported as 72%. The sedation scores result in series [3] (7.5 mg sublingual versus oral, 30 and 60 min after administration) is reported as “higher than in the oral group”.

`Cc1nnc2n1-c1ccc(Cl)cc1C(c1ccccc1Cl)=NC2` [Triazolam, 8-chloro-6-(o-chlorophenyl)-1-methyl-4H-s-triazolo-[4,3-alpha][1,4]benzodiazepine]: the tablet dissolution time in series [4] is ≤ 90 s. Besides, the “tablet dissolution after dosing” value in series [5] was 2 to 3 min. Besides, the “depth of sedation versus 10 mg oral diazepam” value in [6] is given as “deeper sedation”. In series [6] (61-70 year old patients), the “time after administration at which sedation developed” value is 60 to 90 min. For the same compound, the “average sublingual tablet dissolution” value in series [7] was 4 min. Moreover, the “sedation and psychomotor performance, elderly versus young persons at the same dose” value in [8] is “greater degree of sedation and greater impairment of psychomotor performance”.
